Results taken from ChEMBL document CHEMBL5212743, “Selectivity Literature for EUbOPEN Chemogenomics Library wave 3” (2023).

How the values were obtained:
[1] = target: T1, Sigma intracellular receptor 2 (Homo sapiens, UniProt Q5BJF2); experiment: Selectivity interaction (GPCR panel (PDSP screen)) EUB0000333a TMEM97; details: at 10 µM
[2] = target: Serine/threonine-protein kinase ICK (Homo sapiens) (UniProt Q9UPZ9); experiment: Selectivity interaction (KinomeScan (DiscoverX)) EUB0000333a ICK; details: at 1 µM
[3] = target: eIF-2-alpha kinase GCN2 (Homo sapiens) (UniProt Q9P2K8); experiment: Selectivity interaction (KinomeScan (DiscoverX)) EUB0000333a EIF2AK4; details: at 1 µM
Chain of eIF-2-alpha kinase GCN2 (Homo sapiens) (Q9P2K8 whole entry): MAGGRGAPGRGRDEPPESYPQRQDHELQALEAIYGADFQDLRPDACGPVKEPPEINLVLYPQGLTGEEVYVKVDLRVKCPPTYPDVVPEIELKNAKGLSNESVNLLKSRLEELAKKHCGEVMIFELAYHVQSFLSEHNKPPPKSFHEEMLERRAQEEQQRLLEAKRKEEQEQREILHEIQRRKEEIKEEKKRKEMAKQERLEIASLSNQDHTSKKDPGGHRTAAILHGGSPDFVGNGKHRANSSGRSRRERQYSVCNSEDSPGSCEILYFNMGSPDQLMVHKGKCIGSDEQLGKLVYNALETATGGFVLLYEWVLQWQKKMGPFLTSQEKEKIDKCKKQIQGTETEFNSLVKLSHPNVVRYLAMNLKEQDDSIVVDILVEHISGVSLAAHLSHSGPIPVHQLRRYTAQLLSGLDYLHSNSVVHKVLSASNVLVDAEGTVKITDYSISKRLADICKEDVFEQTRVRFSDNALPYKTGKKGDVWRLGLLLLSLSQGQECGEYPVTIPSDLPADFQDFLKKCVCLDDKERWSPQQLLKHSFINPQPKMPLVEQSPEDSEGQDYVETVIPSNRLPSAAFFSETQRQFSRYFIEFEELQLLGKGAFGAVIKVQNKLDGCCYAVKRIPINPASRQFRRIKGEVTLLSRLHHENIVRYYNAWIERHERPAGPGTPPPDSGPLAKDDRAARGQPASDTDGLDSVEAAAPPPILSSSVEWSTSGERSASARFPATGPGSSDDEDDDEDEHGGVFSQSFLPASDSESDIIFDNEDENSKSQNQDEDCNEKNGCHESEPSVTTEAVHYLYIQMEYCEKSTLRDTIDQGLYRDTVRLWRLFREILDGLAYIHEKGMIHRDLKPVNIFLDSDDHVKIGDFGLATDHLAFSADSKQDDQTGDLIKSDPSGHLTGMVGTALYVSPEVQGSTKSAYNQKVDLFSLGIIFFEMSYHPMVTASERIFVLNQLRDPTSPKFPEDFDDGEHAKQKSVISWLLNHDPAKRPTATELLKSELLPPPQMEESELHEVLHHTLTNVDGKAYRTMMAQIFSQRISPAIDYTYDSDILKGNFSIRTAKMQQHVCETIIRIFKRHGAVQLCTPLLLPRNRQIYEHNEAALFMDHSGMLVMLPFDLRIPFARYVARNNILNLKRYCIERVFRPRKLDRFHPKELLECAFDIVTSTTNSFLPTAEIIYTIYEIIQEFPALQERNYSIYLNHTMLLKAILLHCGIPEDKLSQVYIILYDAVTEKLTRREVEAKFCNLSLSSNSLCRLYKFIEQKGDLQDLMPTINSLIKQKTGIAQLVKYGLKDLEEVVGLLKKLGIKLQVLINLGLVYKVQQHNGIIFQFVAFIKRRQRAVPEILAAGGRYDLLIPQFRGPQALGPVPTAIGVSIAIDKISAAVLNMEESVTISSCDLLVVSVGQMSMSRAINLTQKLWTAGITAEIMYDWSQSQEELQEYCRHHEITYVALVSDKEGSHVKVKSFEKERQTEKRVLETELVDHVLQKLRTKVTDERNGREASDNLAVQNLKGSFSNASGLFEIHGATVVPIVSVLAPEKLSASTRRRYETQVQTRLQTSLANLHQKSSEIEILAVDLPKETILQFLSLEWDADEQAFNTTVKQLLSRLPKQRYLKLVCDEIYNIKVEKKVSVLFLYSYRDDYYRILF

[4] = target: P2Y purinoceptor 2 (Homo sapiens) (UniProt P41231); experiment: Selectivity interaction (GPCR panel (Eurofins-Cerep)) EUB0000333a P2RY2; details: at 10 µM
Chain of P2Y purinoceptor 2 (Homo sapiens) (P41231 whole entry): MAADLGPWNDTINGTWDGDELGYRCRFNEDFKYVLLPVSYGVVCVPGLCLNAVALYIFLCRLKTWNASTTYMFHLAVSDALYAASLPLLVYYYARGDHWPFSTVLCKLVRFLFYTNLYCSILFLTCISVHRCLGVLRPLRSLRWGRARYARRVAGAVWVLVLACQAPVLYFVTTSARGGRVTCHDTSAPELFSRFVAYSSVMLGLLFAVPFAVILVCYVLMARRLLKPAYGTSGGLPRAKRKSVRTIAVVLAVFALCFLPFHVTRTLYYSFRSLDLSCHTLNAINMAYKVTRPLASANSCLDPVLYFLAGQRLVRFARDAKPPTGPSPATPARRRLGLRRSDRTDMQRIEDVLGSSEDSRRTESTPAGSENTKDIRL

[5] = target: T2, Muscarinic acetylcholine receptor M2 (Homo sapiens) (UniProt P08172); experiment: Selectivity interaction (GPCR panel (PDSP screen)) EUB0000333a CHRM2; details: at 10 µM
T2 sequence (whole entry): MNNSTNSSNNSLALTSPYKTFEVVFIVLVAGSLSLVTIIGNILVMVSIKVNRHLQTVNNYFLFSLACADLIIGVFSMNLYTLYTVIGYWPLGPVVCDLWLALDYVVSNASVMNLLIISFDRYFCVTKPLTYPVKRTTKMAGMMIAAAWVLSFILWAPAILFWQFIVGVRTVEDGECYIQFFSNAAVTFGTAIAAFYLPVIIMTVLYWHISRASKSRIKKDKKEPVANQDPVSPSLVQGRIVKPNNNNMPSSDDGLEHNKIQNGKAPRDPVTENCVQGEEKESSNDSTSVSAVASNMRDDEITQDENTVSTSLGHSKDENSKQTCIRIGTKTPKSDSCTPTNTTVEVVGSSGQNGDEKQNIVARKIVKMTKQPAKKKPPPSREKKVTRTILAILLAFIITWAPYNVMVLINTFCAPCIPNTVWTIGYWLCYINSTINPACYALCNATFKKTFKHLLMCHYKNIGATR

[6] = target: 5-hydroxytryptamine receptor 2C (Homo sapiens) (UniProt P28335); experiment: Selectivity interaction (GPCR panel (PDSP screen)) EUB0000737a HTR2C; details: at 10 µM
Chain of 5-hydroxytryptamine receptor 2C (Homo sapiens) (P28335 whole entry): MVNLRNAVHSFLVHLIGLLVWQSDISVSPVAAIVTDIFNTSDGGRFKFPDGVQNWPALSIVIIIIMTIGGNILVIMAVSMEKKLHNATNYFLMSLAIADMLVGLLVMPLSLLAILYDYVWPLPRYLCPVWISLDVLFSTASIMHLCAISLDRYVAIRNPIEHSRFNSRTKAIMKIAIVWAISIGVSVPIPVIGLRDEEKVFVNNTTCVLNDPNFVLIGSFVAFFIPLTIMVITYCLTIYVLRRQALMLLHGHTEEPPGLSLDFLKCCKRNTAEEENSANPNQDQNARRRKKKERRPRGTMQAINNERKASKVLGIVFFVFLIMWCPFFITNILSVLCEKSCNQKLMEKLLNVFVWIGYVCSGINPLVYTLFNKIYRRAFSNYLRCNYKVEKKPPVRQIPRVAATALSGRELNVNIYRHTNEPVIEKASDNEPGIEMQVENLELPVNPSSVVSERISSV

[7] = target: T1, Sigma intracellular receptor 2; experiment: Selectivity interaction (GPCR panel (PDSP screen)) EUB0000251b TMEM97; details: at 10 µM
Histamine H1 receptor = Histamine H1 receptor (Homo sapiens, UniProt P35367); experiment: Selectivity interaction (GPCR panel (PDSP screen)) EUB0000251b HRH1; details: at 10 µM
Chain of Histamine H1 receptor (P35367 whole entry, canonical isoform): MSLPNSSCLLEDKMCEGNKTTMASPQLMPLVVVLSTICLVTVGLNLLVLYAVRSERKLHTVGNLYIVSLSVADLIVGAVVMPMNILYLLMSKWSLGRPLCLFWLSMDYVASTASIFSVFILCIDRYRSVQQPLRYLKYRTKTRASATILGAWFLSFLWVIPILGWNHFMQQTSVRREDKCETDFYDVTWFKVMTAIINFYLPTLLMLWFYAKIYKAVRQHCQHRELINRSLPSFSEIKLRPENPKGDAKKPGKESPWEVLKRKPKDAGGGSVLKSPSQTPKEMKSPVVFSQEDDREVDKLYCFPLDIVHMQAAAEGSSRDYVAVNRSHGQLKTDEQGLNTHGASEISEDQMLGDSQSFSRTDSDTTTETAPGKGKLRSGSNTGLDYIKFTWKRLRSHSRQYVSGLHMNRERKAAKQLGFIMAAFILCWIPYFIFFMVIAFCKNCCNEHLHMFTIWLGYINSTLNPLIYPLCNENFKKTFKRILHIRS

[8] = test system: Phosphatidylinositol 4,5-bisphosphate 3-kinase catalytic subunit alpha isoform (Homo sapiens), P42336 [E542K]; experiment: (§1) Selectivity interaction (KinomeScan (DiscoverX)) EUB0000251b PIK3CA; details: at 1 µM
[9] = test system: Phosphatidylinositol 4,5-bisphosphate 3-kinase catalytic subunit alpha isoform (Homo sapiens), P42336 [Q546K]; experiment: as §1; details: at 1 µM
[10] = target: T3, Myosin-IIIb (Homo sapiens) (UniProt Q8WXR4); experiment: Selectivity interaction (KinomeScan (DiscoverX)) EUB0000320b MYO3B; details: at 1 µM
T3 sequence (whole entry): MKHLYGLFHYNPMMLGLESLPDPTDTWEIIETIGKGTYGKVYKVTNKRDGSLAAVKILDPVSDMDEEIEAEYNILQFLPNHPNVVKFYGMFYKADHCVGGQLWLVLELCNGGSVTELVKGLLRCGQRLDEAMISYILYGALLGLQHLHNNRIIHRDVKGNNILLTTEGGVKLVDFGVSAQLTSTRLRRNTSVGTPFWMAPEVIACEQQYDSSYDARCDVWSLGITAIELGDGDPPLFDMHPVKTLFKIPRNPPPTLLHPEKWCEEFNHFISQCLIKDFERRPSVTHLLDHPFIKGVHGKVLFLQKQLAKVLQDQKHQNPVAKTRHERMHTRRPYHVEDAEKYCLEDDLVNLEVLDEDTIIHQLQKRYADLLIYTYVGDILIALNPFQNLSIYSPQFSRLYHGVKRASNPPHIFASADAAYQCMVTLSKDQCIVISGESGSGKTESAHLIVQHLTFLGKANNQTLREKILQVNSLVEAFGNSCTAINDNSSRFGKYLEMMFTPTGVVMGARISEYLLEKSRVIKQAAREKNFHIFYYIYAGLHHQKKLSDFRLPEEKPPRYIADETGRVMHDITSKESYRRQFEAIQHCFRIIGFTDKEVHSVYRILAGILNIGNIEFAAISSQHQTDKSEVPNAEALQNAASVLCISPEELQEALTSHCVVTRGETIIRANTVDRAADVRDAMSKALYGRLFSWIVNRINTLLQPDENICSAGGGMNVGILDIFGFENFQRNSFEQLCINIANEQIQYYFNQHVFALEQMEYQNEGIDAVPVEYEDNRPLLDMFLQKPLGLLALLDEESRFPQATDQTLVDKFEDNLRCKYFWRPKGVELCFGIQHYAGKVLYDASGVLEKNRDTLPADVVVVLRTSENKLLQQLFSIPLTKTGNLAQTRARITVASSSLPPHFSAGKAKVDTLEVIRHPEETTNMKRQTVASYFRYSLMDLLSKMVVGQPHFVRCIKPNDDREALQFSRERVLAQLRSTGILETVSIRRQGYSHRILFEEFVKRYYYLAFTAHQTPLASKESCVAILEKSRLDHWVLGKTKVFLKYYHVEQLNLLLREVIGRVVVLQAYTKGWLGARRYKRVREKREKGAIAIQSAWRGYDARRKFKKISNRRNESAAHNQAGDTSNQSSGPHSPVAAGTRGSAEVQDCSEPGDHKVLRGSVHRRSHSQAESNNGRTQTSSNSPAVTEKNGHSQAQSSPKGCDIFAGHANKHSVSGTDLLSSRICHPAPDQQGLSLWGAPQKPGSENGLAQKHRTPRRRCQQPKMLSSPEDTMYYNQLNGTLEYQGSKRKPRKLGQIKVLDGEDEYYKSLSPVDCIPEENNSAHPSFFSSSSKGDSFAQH

[11] = target: Serine/threonine-protein kinase 33 (Homo sapiens, UniProt Q9BYT3); experiment: Selectivity interaction (KinomeScan (DiscoverX)) EUB0000320b STK33; details: at 1 µM
[12] = target: 5-hydroxytryptamine receptor 2A (Homo sapiens, UniProt P28223); experiment: Selectivity interaction (Lead profiling screen (Eurofins, panel of GPCRs, transporters, nuclear receptors, and other enzymes)) EUB0000320b HTR2A; details: at 10 µM
[13] = target: Casein kinase II subunit alpha' (Homo sapiens) (UniProt P19784); experiment: Selectivity interaction (Kinase panel (Eurofins)) EUB0000320b CSNK2A2; details: at 1 µM
[14] = target: T4, Alpha-1A adrenergic receptor (Homo sapiens) (UniProt P35348); experiment: Selectivity interaction (Lead profiling screen (Eurofins, panel of GPCRs, transporters, nuclear receptors, and other enzymes)) EUB0000320b ADRA1A; details: at 10 µM
T4 sequence (whole entry): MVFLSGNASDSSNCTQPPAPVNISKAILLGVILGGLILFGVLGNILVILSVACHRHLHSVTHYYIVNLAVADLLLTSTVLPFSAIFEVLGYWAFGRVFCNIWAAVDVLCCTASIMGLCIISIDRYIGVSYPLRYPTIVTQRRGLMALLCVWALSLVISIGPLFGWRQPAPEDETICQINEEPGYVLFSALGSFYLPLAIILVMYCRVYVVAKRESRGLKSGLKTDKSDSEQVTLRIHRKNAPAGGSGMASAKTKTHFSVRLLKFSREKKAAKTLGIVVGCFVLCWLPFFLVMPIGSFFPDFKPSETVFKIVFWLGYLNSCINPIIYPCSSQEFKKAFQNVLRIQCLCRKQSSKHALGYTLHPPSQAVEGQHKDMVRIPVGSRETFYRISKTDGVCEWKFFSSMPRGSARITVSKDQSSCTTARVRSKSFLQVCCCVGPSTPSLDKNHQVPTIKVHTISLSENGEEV

[15] = target: 5-hydroxytryptamine receptor 2B (Homo sapiens, UniProt P41595); experiment: Selectivity interaction (Lead profiling screen (Eurofins, panel of GPCRs, transporters, nuclear receptors, and other enzymes)) EUB0000320b HTR2B; details: at 10 µM
Chain of 5-hydroxytryptamine receptor 2B (P41595 whole entry): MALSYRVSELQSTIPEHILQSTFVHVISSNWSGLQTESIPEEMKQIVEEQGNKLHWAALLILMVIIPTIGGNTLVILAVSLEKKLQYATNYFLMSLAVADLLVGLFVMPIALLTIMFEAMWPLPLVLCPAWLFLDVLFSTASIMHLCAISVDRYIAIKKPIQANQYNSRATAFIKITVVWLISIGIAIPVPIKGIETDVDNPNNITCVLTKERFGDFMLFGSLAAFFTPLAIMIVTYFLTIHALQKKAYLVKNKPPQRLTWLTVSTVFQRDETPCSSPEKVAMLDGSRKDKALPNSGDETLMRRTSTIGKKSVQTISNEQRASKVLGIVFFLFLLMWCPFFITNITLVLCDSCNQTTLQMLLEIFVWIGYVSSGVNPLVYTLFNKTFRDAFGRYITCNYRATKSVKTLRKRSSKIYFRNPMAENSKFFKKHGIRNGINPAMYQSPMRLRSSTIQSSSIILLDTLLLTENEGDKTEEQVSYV

[16] = target: T5, Cytoplasmic tyrosine-protein kinase BMX (Homo sapiens) (UniProt P51813); experiment: Selectivity interaction (KinomeScan (DiscoverX)) EUB0000320b BMX; details: at 1 µM
T5 sequence (whole entry): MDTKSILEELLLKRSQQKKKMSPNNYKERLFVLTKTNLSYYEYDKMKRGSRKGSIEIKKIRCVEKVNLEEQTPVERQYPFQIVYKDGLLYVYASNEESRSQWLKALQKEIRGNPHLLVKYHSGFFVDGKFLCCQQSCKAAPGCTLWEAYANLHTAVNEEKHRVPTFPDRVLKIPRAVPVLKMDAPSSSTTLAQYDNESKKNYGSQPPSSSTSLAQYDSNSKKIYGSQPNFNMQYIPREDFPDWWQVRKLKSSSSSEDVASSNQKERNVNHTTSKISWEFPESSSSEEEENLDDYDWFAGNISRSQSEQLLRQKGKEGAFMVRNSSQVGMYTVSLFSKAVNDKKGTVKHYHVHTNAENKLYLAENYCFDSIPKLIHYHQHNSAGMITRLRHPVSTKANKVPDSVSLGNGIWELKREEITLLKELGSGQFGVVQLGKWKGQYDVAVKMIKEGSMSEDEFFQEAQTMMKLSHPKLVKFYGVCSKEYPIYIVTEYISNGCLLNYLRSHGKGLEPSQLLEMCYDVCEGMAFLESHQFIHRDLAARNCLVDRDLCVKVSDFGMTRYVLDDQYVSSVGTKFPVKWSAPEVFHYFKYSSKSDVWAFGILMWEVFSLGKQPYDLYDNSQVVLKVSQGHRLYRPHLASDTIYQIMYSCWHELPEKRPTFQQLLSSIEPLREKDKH

[17] = target: Kappa-type opioid receptor (Homo sapiens, UniProt P41145); experiment: Selectivity interaction (Lead profiling screen (Eurofins, panel of GPCRs, transporters, nuclear receptors, and other enzymes)) EUB0000320b OPRK1; details: at 10 µM
Chain of Kappa-type opioid receptor (P41145 whole entry): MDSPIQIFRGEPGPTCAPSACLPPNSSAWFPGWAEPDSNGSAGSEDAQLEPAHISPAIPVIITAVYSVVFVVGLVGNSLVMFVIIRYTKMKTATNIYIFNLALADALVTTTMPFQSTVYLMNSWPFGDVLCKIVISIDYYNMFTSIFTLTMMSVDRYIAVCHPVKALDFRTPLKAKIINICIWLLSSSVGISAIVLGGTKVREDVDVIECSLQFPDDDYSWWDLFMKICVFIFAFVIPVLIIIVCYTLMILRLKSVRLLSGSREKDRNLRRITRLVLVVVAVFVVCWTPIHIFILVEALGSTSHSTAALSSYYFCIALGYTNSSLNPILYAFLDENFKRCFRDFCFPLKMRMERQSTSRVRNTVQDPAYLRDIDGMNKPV

[18] = target: 5-hydroxytryptamine receptor 2C (Homo sapiens) (UniProt P28335); experiment: Selectivity interaction (Lead profiling screen (Eurofins, panel of GPCRs, transporters, nuclear receptors, and other enzymes)) EUB0000320b HTR2C; details: at 10 µM
[19] = test system: Receptor-type tyrosine-protein kinase FLT3 (Homo sapiens), P36888 [UNDEFINED MUTATION]; experiment: Selectivity interaction (KinomeScan (DiscoverX)) EUB0000320b FLT3; details: at 1 µM
[20] = target: 5-hydroxytryptamine receptor 3A (Homo sapiens) (UniProt P46098); experiment: Selectivity interaction (GPCR panel (PDSP screen)) EUB0000293b HTR3A; details: at 10 µM
[21] = target: Prostaglandin E2 receptor EP4 subtype (Homo sapiens, UniProt P35408); experiment: Selectivity interaction (Eurofins-Panlabs radioligand binding assay ) EUB0000293b PTGER4; details: at 10 µM
Chain of Prostaglandin E2 receptor EP4 subtype (P35408 whole entry): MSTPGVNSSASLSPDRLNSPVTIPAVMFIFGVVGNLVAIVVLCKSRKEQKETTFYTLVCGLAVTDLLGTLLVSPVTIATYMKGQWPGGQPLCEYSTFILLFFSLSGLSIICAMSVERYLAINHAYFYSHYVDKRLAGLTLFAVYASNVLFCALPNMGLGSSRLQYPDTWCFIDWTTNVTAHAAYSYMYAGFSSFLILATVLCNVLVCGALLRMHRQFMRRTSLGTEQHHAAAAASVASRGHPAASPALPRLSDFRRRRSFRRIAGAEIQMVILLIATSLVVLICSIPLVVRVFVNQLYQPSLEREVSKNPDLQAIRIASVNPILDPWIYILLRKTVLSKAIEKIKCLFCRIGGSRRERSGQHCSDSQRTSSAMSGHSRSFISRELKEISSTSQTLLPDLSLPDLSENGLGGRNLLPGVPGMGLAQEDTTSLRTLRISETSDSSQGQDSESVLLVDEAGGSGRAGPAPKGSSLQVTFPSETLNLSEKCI

[22] = target: Serine/threonine-protein kinase SBK1 (Homo sapiens) (UniProt Q52WX2); experiment: Selectivity interaction (KinomeScan (DiscoverX)) EUB0000708a SBK1; details: at 1 µM
[23] = target: Serine/threonine-protein kinase ULK3 (Homo sapiens) (UniProt Q6PHR2); experiment: Selectivity interaction (KinomeScan (DiscoverX)) EUB0000708a ULK3; details: at 1 µM
Chain of Serine/threonine-protein kinase ULK3 (Homo sapiens) (Q6PHR2 whole entry): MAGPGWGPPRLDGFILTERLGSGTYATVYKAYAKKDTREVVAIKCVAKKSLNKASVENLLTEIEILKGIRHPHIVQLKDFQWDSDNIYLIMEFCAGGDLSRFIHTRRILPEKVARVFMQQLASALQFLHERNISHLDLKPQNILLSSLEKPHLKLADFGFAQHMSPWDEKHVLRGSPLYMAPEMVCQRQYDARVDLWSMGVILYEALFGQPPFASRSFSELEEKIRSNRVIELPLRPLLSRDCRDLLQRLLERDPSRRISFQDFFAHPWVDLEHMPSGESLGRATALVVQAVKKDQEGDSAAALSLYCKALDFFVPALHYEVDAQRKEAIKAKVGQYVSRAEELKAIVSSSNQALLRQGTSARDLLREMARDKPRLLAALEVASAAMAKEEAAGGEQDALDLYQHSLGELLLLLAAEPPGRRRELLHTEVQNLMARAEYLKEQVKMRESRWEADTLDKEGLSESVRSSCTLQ

T1 sequence (Q5BJF2 whole entry): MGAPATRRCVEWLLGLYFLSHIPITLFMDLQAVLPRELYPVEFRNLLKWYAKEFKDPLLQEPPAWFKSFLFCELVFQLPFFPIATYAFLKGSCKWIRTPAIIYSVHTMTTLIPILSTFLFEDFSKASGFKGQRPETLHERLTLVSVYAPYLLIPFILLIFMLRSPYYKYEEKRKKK

## Cc1noc([C@H]2C[C@@H](c3ccc(C(F)(F)F)cc3)CN(C(=O)N3CCS(=O)(=O)C3)C2)n1
[1]
  inhibition: 42%
[2]
  % of control: 62%
[3]
  % of control: 28%
[4]
  inhibition: 29%
[5]
  inhibition: 39%

## CC(=O)C1=C(C)N(c2cccc(C(F)(F)F)c2)C(=O)N[C@H]1c1ccc(C#N)nc1
[6]
  % of inhibition: 29%

## Cc1c(NC(=O)c2cc(C(N)=O)nc3cc(F)ccc23)c(C(F)(F)F)nn1Cc1ccc(C(C)(C)C)cc1
[7]
  % of inhibition: 41%
Histamine H1 receptor
  % of inhibition: 46%
[8]
  % of control: 43%
[9]
  % of control: 32%

## CNCc1ccccc1-c1csc([C@@H](C)Nc2nc(C)nc3cc(OC)c(OC)cc23)c1
[10]
  % of control: 47%
[11]
  % of control: 45%
[12]
  % of inhibition: 110%
[13]
  % of control: 67%
[14]
  % of inhibition: 106%
[15]
  % of inhibition: 100%
[16]
  % of control: 49%
[17]
  % of inhibition: 105%
[18]
  % of inhibition: 104%
[19]
  % of control: 48%

## CC1=C(C#N)C(c2ccc3[nH]nc(C)c3c2)C(C#N)=C(C)N1
[20]
  % of control: 33%
[21]
  % of inhibition: 19%

## Cc1nc(C2CCN(C(=O)c3ccc(OC(F)(F)F)cc3N)CC2)c2ncc(N3CCN(C)CC3)cc2n1
[22]
  % of control: 40%
[23]
  % of control: 46%
